Reference: article PMC8553340, “USP28 deletion and small-molecule inhibition destabilizes c-MYC and elicits regression of squamous cell lung carcinoma” (eLife, 2021)

Target: T1, ubiquitin-specific protease 28 (USP28) (Homo sapiens, UniProt Q96RU2)
T1 construct: endogenous, NCI-H520 cell extracts and intact cells
T1 sequence (Q96RU2 1-1077): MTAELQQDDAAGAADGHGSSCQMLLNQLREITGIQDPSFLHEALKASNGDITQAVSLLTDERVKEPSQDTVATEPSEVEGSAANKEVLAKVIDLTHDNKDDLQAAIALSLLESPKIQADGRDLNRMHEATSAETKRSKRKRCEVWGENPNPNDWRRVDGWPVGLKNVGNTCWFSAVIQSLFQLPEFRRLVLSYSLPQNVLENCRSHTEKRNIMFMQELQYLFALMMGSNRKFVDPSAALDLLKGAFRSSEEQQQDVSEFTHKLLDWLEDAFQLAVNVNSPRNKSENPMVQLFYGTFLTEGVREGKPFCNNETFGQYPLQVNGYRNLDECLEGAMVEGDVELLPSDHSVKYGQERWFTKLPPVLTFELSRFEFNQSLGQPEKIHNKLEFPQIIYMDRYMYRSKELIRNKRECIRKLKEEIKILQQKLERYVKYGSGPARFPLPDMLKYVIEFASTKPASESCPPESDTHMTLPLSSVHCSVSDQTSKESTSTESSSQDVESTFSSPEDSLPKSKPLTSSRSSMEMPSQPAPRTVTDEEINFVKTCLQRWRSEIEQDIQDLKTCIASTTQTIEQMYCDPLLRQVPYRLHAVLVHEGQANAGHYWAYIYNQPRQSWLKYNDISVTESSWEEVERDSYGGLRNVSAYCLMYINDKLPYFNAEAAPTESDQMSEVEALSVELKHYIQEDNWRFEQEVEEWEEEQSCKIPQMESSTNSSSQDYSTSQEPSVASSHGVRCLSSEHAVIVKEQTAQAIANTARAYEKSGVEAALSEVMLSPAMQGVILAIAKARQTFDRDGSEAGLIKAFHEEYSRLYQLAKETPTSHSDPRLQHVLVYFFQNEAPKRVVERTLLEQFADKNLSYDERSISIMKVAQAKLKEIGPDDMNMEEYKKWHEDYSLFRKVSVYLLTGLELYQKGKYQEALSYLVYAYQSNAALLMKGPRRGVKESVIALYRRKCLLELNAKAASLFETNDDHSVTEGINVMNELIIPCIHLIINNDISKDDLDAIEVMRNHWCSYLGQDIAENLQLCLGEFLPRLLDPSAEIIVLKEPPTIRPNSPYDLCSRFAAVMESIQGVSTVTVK
Assay: competition with HA-UbPA activity-based probe labelling (Western blot) in NCI-H520 extract and cells; ABPP mass spectrometry
Format: biochemical

`Cc1ccc2c(N)c(C(=O)N[C@H]3CCc4cc(N5CC6CCC(C5)N6)ccc4C3)sc2n1` [FT206] was tested, and the EC50 was 0.3 to 1 µM.
